# According to patent publication US8952024B2, “Herbicidal pyrimidone derivatives” (E I du Pont de Nemours and Company, priority 2009, dated 2015):
# Key:
# Assay in all cases: Test B pre-/postemergence plant response
# Assay type in all cases: in vivo
# [1] = tested on: velvetleaf (Abutilon theophrasti)
# In short: (§1)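 Test compounds, formulated in a non-phytotoxic solvent mixture with surfactant, are applied to the soil surface (loam and sand blend) right after seeding, or sprayed over plants at the 1- to 4-leaf stage grown in peat moss/vermiculite medium. After 13 to 15 days under glasshouse conditions, each species is scored visually from 0 (no effect) to 100 (complete control) against controls.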
# [2] = tested on: yellow nutsedge (Cyperus esculentus)
# In short: as §1
# soybean (Glycine max) = tested on: soybean (Glycine max)
# In short: as §1
# wild oat (Avena fatua) = tested on: wild oat (Avena fatua)
# In short: as §1
# [3] = tested on: downy bromegrass (Bromus tectorum)
# In short: as §1
# kochia (Kochia scoparia) = tested on: kochia (Kochia scoparia)
# In short: as §1
# [4] = tested on: pigweed (Amaranthus retroflexus)
# In short: as §1
# [5] = tested on: wheat (Triticum aestivum)
# In short: as §1
# corn (Zea mays) = tested on: corn (Zea mays)
# In short: as §1
# [6] = tested on: Italian ryegrass (Lolium multiflorum)
# In short: as §1
# [7] = tested on: goosegrass (Eleusine indica)
# In short: as §1
# [8] = tested on: ragweed (common ragweed, Ambrosia elatior)
# In short: as §1
# [9] = tested on: blackgrass (Alopecurus myosuroides)
# In short: as §1
# [10] = tested on: johnsongrass (Sorghum halepense)
# In short: as §1
# [11] = tested on: Surinam grass (Brachiaria decumbens)
# In short: as §1
# [12] = tested on: lambsquarters (Chenopodium album)
# In short: as §1
# [13] = tested on: woolly cupgrass (Eriochloa villosa)
# In short: as §1
# [14] = tested on: large crabgrass (Digitaria sanguinalis)
# In short: as §1
# [15] = 31 g ai/ha, postemergence, scale 0 to 100, 0 is no effect, 100 is complete control
# [16] = 250 g ai/ha, Preemergence, 0 to 100 scale
# [17] = Postemergence, 62 g ai/ha, scale 0 (no effect) to 100 (complete control), 13 to 15 days
# [18] = Postemergence, 125 g ai/ha, visual rating after 13 to 15 days, scale 0 (no effect) to 100 (complete control)
# [19] = Preemergence, 31 g ai/ha, scale 0 to 100 (0 no effect, 100 complete control)
# [20] = Preemergence, 125 g ai/ha, 0 to 100 scale
# [21] = Postemergence, 250 g ai/ha, scale 0 to 100
# [22] = Preemergence, 62 g ai/ha, scale 0 to 100, 0 no effect, 100 complete control
structure (smiles),measurement,setting,value
CCn1c(-c2ccccc2)ncc(C(=O)C2=C(O)CCCC2=O)c1=O [Compound 49],"Plant response rating, Velvetleaf",[1]; [15],90
same,"Plant response rating, Velvetleaf",[1]; [16],100
same,"Plant response rating, Velvetleaf",[1]; [17],95
same,"Plant response rating, Velvetleaf",[1]; [18],98
same,"Plant response rating, Velvetleaf",[1]; [19],95
same,Velvetleaf plant response rating,[1]; [20],100
same,"Plant response rating, Nutsedge, Yellow",[2]; [15],65
same,"Plant response rating, Nutsedge, Yellow",[2]; [16],90
same,"Plant response rating, Nutsedge, Yellow",[2]; [17],65
same,"Plant response rating, Nutsedge, Yellow",[2]; [18],70
same,"Plant response rating, Nutsedge, Yellow",[2]; [19],60
same,"Nutsedge, Yellow plant response rating",[2]; [20],85
same,"Plant response rating, Soybean",soybean (Glycine max); [15],55
same,"Plant response rating, Soybean",soybean (Glycine max); [16],85
same,"Plant response rating, Soybean",soybean (Glycine max); [17],65
same,"Plant response rating, Soybean",soybean (Glycine max); [18],85
same,"Plant response rating, Soybean",soybean (Glycine max); [19],0
same,Soybean plant response rating,soybean (Glycine max); [20],85
same,"Plant response rating, Oat, Wild",wild oat (Avena fatua); [15],0
same,"Plant response rating, Oat, Wild",wild oat (Avena fatua); [16],0
same,"Plant response rating, Oat, Wild",wild oat (Avena fatua); [17],5
same,"Plant response rating, Oat, Wild",wild oat (Avena fatua); [18],5
same,"Plant response rating, Oat, Wild",wild oat (Avena fatua); [19],0
same,"Oat, Wild plant response rating",wild oat (Avena fatua); [20],0
same,"Plant response rating, Bromegrass, Downy",[3]; [15],0
same,"Plant response rating, Bromegrass, Downy",[3]; [17],0
same,"Plant response rating, Bromegrass, Downy",[3]; [18],0
same,"Bromegrass, Downy plant response rating",[3]; [21],5
same,"Plant response rating, Bromegrass, Downy",[3]; [19],0
same,"Plant response rating, Bromegrass, Downy",[3]; [22],0
same,"Bromegrass, Downy plant response rating",[3]; [20],0
same,"Plant response rating, Kochia",kochia (Kochia scoparia); [15],55
same,"Plant response rating, Kochia",kochia (Kochia scoparia); [17],65
same,"Plant response rating, Kochia",kochia (Kochia scoparia); [18],80
same,Kochia plant response rating,kochia (Kochia scoparia); [21],90
same,"Plant response rating, Pigweed",[4]; [15],80
same,"Plant response rating, Pigweed",[4]; [16],100
same,"Plant response rating, Pigweed",[4]; [17],90
same,"Plant response rating, Pigweed",[4]; [18],95
same,"Plant response rating, Pigweed",[4]; [19],100
same,Pigweed plant response rating,[4]; [20],100
same,"Plant response rating, Wheat",[5]; [15],0
same,"Plant response rating, Wheat",[5]; [16],0
same,"Plant response rating, Wheat",[5]; [17],5
same,"Plant response rating, Wheat",[5]; [18],15
same,"Plant response rating, Wheat",[5]; [19],0
same,Wheat plant response rating,[5]; [20],0
same,"Plant response rating, Corn",corn (Zea mays); [15],5
same,"Plant response rating, Corn",corn (Zea mays); [16],0
same,"Plant response rating, Corn",corn (Zea mays); [17],5
same,"Plant response rating, Corn",corn (Zea mays); [18],5
same,Corn plant response rating,corn (Zea mays); [21],15
same,"Plant response rating, Corn",corn (Zea mays); [19],0
same,"Plant response rating, Corn",corn (Zea mays); [22],0
same,Corn plant response rating,corn (Zea mays); [20],0
same,"Plant response rating, Ryegrass, Italian",[6]; [15],0
same,"Plant response rating, Ryegrass, Italian",[6]; [16],5
same,"Plant response rating, Ryegrass, Italian",[6]; [17],0
same,"Plant response rating, Ryegrass, Italian",[6]; [18],0
same,"Plant response rating, Ryegrass, Italian",[6]; [19],0
same,"Ryegrass, Italian plant response rating",[6]; [20],0
same,"Plant response rating, Goosegrass",[7]; [15],65
same,"Plant response rating, Goosegrass",[7]; [16],100
same,"Plant response rating, Goosegrass",[7]; [17],70
same,"Plant response rating, Goosegrass",[7]; [18],70
same,Goosegrass plant response rating,[7]; [21],70
same,"Plant response rating, Goosegrass",[7]; [19],20
same,Goosegrass plant response rating,[7]; [20],98
same,"Plant response rating, Ragweed",[8]; [15],75
same,"Plant response rating, Ragweed",[8]; [16],95
same,"Plant response rating, Ragweed",[8]; [17],80
same,"Plant response rating, Ragweed",[8]; [18],80
same,"Plant response rating, Ragweed",[8]; [19],70
same,Ragweed plant response rating,[8]; [20],80
same,"Plant response rating, Blackgrass",[9]; [15],0
same,"Plant response rating, Blackgrass",[9]; [16],0
same,"Plant response rating, Blackgrass",[9]; [17],0
same,"Plant response rating, Blackgrass",[9]; [18],0
same,Blackgrass plant response rating,[9]; [21],30
same,"Plant response rating, Blackgrass",[9]; [19],0
same,"Plant response rating, Blackgrass",[9]; [22],0
same,Blackgrass plant response rating,[9]; [20],0
same,"Plant response rating, Johnsongrass",[10]; [15],0
same,"Plant response rating, Johnsongrass",[10]; [16],10
same,"Plant response rating, Johnsongrass",[10]; [17],0
same,"Plant response rating, Johnsongrass",[10]; [18],10
same,Johnsongrass plant response rating,[10]; [21],10
same,"Plant response rating, Johnsongrass",[10]; [19],0
same,"Plant response rating, Johnsongrass",[10]; [22],0
same,Johnsongrass plant response rating,[10]; [20],0
same,"Plant response rating, Surinam Grass",[11]; [15],15
same,"Plant response rating, Surinam Grass",[11]; [16],85
same,"Plant response rating, Surinam Grass",[11]; [17],30
same,"Plant response rating, Surinam Grass",[11]; [18],55
same,"Plant response rating, Surinam Grass",[11]; [19],0
same,Surinam Grass plant response rating,[11]; [20],75
same,"Plant response rating, Lambsquarters",[12]; [15],70
same,"Plant response rating, Lambsquarters",[12]; [16],98
same,"Plant response rating, Lambsquarters",[12]; [17],80
same,"Plant response rating, Lambsquarters",[12]; [18],90
same,Lambsquarters plant response rating,[12]; [21],98
same,"Plant response rating, Lambsquarters",[12]; [19],95
same,"Plant response rating, Lambsquarters",[12]; [22],95
same,Lambsquarters plant response rating,[12]; [20],98
same,"Plant response rating, Cupgrass, Woolly",[13]; [15],50
same,"Plant response rating, Cupgrass, Woolly",[13]; [16],20
same,"Plant response rating, Cupgrass, Woolly",[13]; [17],50
same,"Plant response rating, Cupgrass, Woolly",[13]; [18],55
same,"Cupgrass, Woolly plant response rating",[13]; [21],55
same,"Plant response rating, Cupgrass, Woolly",[13]; [19],0
same,"Plant response rating, Cupgrass, Woolly",[13]; [22],0
same,"Cupgrass, Woolly plant response rating",[13]; [20],0
same,"Plant response rating, Crabgrass, Large",[14]; [15],75
same,"Plant response rating, Crabgrass, Large",[14]; [16],100
same,"Plant response rating, Crabgrass, Large",[14]; [17],75
same,"Plant response rating, Crabgrass, Large",[14]; [18],80
same,"Crabgrass, Large plant response rating",[14]; [21],85
same,"Plant response rating, Crabgrass, Large",[14]; [19],75
same,"Plant response rating, Crabgrass, Large",[14]; [22],95
same,"Crabgrass, Large plant response rating",[14]; [20],98
